Bounds are passed on as bounds.

For the first test, the system named is COLO320DM cells. The test can be described thus: COLO320DM proliferation assay (CellTiter-Glo). The class given is cell-based, human. To be noted: read-out: COLO320DM Proliferation Abs IC50. Put shortly: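 COLO320DM cells, 250 cells/well in RPMI-1640 with 4% FBS, attached 18-22 h, then exposed 96 h at 37 °C, 5% CO2 to 7-point 1/2 dilutions from 20 uM to 313 nM. Viability by CellTiter-Glo luminescence; IC50 derived from the dose curve.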
On the technique in general: Cellular ATP, detected with luciferase, serves as a proxy for viable cell number.
“Ac-PL3-Asp-Npg-B5-Asp-3COOHF-Aib-Ala-Phe-Lys*3-PyrS2-hCha-BztA-GlnR*3-Val-Glu-Ala-NH2 [I-1347]”: the IC50 was > 20000 nM.

On to “Ac-PL3-Asp-Npg-B5-Asp-3COOHF-Aib-Ala-Phe-Lys*3-PyrS2-hCypA-34ClF-GlnR*3-Val-Glu-Ala-NH2 [I-1349]”, for which the IC50 was ≤ 10000 nM.

With “Ac-PL3-Asp-Npg-B5-Asp-3COOHF-Aib-Ala-Phe-Lys*3-PyrS2-hCypA-BztA-GlnR*3-Val-Glu-Ala-NH2 [I-1346]”, the IC50 was ≤ 10000 nM.

As for “Ac-PL3-Asp-Npg-B5-Asp-3COOHF-Aib-Ala-Phe-dDab*3-PyrS2-3Thi-BztA-GlnR*3-Ala-Ala-Ala-Ala-Ala-NH2 [I-790]”, the IC50 is ≤ 10000 nM.

On to “Me2NAc-PL3-Asp-Npg-B5-Asp-3COOHF-Aib-Ala-Phe-Lys*3-PyrS2-3Thi-BztA-GlnR*3-Ala-NH2 [I-1078]”, for which the IC50 was > 20000 nM.

The target of another test is T1, full-length B-Catenin (Uniprot ID P35222) (Homo sapiens, UniProt P35222).
T1 construct: 10 nM full-length B-Catenin (Uniprot ID P35222)
T1 sequence (P35222 1-781): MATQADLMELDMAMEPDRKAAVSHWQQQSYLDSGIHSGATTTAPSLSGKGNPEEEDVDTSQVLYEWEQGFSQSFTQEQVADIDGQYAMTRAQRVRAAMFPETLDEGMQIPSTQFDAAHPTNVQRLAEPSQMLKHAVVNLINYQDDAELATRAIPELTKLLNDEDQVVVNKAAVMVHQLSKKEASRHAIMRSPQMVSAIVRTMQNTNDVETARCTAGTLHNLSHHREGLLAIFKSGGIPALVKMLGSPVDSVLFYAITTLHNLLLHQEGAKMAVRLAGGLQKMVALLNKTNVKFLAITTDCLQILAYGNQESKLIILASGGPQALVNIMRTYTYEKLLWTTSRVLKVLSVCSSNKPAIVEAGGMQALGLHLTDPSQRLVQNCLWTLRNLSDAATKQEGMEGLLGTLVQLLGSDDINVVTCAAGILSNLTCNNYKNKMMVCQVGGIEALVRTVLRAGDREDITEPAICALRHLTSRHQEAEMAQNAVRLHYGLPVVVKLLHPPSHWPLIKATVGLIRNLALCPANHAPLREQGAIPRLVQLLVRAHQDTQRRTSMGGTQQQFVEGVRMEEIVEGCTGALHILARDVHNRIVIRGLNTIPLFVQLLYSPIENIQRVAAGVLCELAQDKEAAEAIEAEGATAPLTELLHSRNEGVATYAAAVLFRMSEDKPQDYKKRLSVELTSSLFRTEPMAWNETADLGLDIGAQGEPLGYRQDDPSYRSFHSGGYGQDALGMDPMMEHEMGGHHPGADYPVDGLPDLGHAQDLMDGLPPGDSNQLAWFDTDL
Assay: not given
The class given is binding. Conditions: competition fluorescence polarization; read-out: beta-Catenin FP IC50. Background: Fluorescence polarisation rises when a labelled molecule tumbles more slowly, as on binding a larger partner.
Turning to “4pentenyl-MePro-Asp-B5-Ala-Asp-3COOHF-Ala-Ala-Phe-PyrS2-Lys*3-3Thi-BztA-Ala-GlnR*3-NH2 [I-932]”, the IC50 was > 1000 nM.

As to “4pentenyl-MePro-Asp-B5-Ala-Asp-3COOHF-Ala-Ala-Phe-PyrS2-Lys*3-3Thi-BztA-Ala-GlnR*3-NH2 [I-993]”, the IC50 fell in the range of 750 to 1000 nM.

For “4pentenyl-ThioPro-Asp-B5-Ala-Asp-3COOHF-Ala-Ala-Phe-PyrS2-Lys*3-3Thi-BztA-Ala-GlnR*3-NH2 [I-933]”, the IC50 is > 1000 nM.

The test is the same for the next values; noted with them: read-out: beta-Catenin FP IC50.
On to “Ac-PL3-Asp-Cha-B5-Asp-3COOHF-Ala-Ala-Phe-Lys*3-PyrS2-2F3MeF-BztA-GlnR*3-Ala-NH2 [I-98]”, for which the IC50 is < 50 nM.

As for “Ac-PL3-Asp-Leu-B5-Asp-3COOHF-Ala-Ala-Phe-GlnR*3-PyrS2-3Thi-BztA-Lys*3-NH2 [I-16]”, the IC50 was < 50 nM.

With “Ac-PL3-Asp-Leu-B5-Asp-3COOHF-Ala-Ala-Phe-Lys*3-PyrS2-3Thi-BztA-GlnR*3-NH2 [I-12]”, the IC50 was < 50 nM.

As for “Ac-PL3-Asp-Leu-B5-Asp-3COOHF-Ala-Ala-Phe-dLys*3-PyrS2-3Thi-BztA-GlnR*3-NH2 [I-10]”, the IC50 is < 50 nM.

Regarding “Ac-PL3-Asp-Npg-B5-Asp-3COOHF-Acp-Ala-Phe-Lys*3-PyrS2-3Thi-BztA-GlnR*3-Ala-NH2 [I-385]”, the IC50 was < 50 nM.

As to “Ac-PL3-Asp-Npg-B5-Asp-3COOHF-Aib-Ala-Phe-Lys*3-PyrS2-3Thi-BztA-GlnR*3-Leu-Glu-Ala-NH2 [I-495]”, the IC50 is < 50 nM.

Take “Ac-PL3-Asp-Npg-B5-Asp-3COOHF-Aib-Ala-Phe-Lys*3-PyrS2-3Thi-BztA-GlnR*3-Leu-Ser-Ala-NH2 [I-497]”: the IC50 was < 50 nM.

As to “Ac-PL3-Asp-Npg-B5-Asp-3COOHF-Aib-Ala-Phe-Lys*3-PyrS2-3Thi-BztA-GlnR*3-Leu-Thr-Ala-NH2 [I-499]”, the IC50 is < 50 nM.

In the case of “Ac-PL3-Asp-Npg-B5-Asp-3COOHF-Aib-Ala-Phe-Lys*3-PyrS2-3Thi-BztA-GlnR*3-Leu-aThr-Ala-NH2 [I-501]”, the IC50 is < 50 nM.

For the substance “Ac-PL3-Asp-Npg-B5-Asp-3COOHF-Aib-Ala-Phe-Lys*3-PyrS2-3Thi-BztA-GlnR*3-Thr-Aib-NH2 [I-412]”, the IC50 is < 50 nM.

As to “Ac-PL3-Asp-Npg-B5-Asp-3COOHF-Aib-Ala-Phe-Lys*3-PyrS2-3Thi-BztA-GlnR*3-Val-Aib-NH2 [I-408]”, the IC50 was < 50 nM.

Consider “Ac-PL3-Asp-Npg-B5-Asp-3COOHF-Aib-Ala-Phe-Lys*3-PyrS2-3Thi-BztA-GlnR*3-dAla-Ser-NH2 [I-461]”, for which the IC50 is < 50 nM.

In the case of “Ac-PL3-Asp-Npg-B5-Asp-3COOHF-Aib-Ala-Phe-Lys*3-PyrS2-3Thi-BztA-GlnR*3-dLeu-Ser-Leu-NH2 [I-468]”, the IC50 is < 50 nM.

For “Ac-PL3-Asp-Npg-B5-Asp-3COOHF-Aib-Ala-Phe-Lys*3-PyrS2-Phe-2NapA-GlnR*3-Ala-NH2 [I-484]”, the IC50 is < 50 nM.

For “Ac-PL3-Asp-Npg-B5-Asp-3COOHF-Aib-Ala-Phe-Lys*3-PyrS2-Phe-BztA-GlnR*3-Ala-NH2 [I-280]”, the IC50 is < 50 nM.

The values above are taken from patent US20240360179A1, “STAPLED PEPTIDES AND METHODS THEREOF” (FOG PHARMACEUTICALS, INC., priority 2021, published 2024).
